The values below come from PMC6650409, “Modeling the binding of diverse ligands within the Ah receptor ligand binding domain” (Scientific Reports, 2019).

Experiment [1] has as its target T1, mAhR (Mus musculus, UniProt P30561).
T1 construct: made in house; host or cells: in vitro transcription/translation (rabbit reticulocyte lysate)
Kind of experiment: biochemical. Particulars: wild-type mAhR. The procedure: (§1) Wild-type and mutant mAhRs and mARNT were synthesized in vitro in the presence of unlabeled L-methionine, the resulting mAhRs and mARNT translation mixtures and MEDGK (25 mM MOPS (3-(N-morpholino)propanesulfonic acid; pH 7.5), 1 mM EDTA, 1 mM dithiothreitol, 10% (v/v) glycerol, 150 mM KCl) were mixed in a 1:1:8 (v/v/v) ratio and incubated with DMSO (1% final concentration) or the indicated concentration of TCDD or test chemical for 2 hours at room temperature. An aliquot of each incubation was mixed with [^32P]-labeled double-stranded oligonucleotide containing the mouse AhR DNA binding site DRE3 (a dioxin responsive element from the upstream region of the murine Cyp1a1 gene[71]) and protein-DNA complexes resolved by gel retardation analysis as previously described in detail. Gels were visualized using a FLA9000 Fujifilm Imager and protein-DNA complexes quantitated with Fujifilm MultiGauge software. For potency measurements, reactions were incubated with increasing concentrations of the test chemical and the chemical concentration producing half maximal AhR:ARNT:DRE complex formation (EC50) determined.
T1 sequence (P53762 whole entry partner, one chain of several): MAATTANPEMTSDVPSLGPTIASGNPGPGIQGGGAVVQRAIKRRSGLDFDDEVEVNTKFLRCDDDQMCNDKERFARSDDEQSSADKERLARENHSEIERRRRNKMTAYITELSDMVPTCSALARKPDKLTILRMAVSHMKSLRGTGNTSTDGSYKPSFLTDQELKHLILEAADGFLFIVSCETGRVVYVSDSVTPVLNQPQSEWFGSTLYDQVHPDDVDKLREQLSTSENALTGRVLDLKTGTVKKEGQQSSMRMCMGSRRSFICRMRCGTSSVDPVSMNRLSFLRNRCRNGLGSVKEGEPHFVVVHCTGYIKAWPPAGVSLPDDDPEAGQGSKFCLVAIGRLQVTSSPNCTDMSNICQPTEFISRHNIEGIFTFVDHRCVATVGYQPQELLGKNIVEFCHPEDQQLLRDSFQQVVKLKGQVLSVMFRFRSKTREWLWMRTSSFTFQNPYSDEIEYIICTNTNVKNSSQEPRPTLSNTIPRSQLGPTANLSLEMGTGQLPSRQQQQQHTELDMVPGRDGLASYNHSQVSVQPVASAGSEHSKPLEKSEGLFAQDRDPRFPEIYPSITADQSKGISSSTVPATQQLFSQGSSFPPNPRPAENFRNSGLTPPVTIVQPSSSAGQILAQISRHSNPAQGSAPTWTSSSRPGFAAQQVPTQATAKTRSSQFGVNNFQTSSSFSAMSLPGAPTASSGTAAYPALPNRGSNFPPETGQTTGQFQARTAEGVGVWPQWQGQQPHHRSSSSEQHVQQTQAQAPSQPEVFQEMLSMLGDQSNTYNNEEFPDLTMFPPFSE

In experiment [2] the target is T2, mAhR (Mus musculus, UniProt P30561).
T2 construct: made in house; host or cells: in vitro, Promega TNT Quick coupled transcription/translation rabbit reticulocyte lysate
T2 sequence (P30561 10-848): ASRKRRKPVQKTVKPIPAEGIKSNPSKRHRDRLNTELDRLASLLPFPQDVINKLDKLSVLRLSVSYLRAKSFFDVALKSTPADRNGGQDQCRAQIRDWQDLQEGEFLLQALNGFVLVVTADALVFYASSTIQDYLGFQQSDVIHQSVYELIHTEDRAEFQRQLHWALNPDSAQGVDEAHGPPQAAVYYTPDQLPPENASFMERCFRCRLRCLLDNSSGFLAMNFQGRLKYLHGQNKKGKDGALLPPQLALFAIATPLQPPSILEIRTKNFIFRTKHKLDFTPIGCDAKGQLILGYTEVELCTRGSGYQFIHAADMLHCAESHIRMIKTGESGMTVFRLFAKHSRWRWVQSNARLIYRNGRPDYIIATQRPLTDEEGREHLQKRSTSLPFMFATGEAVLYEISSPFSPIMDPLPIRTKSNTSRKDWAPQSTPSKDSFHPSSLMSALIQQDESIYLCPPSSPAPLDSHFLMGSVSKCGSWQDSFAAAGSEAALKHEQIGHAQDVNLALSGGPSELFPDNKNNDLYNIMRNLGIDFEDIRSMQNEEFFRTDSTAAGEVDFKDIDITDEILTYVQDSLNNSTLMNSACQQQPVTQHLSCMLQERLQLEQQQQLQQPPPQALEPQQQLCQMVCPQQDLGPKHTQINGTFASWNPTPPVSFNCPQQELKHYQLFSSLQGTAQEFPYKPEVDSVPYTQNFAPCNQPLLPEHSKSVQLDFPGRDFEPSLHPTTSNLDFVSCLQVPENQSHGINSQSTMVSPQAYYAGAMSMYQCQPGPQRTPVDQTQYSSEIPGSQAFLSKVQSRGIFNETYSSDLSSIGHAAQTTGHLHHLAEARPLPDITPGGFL
Description: biochemical. Type of experiment: binding. The procedure: [^3H]TCDD specific binding to wild-type or mutant mAhRs synthesized in vitro using the Promega TNT Quick coupled transcription/translation rabbit reticulocyte lysate kit (Madison, WI) was carried out as previously described. [^3H]TCDD specific binding was determined by subtracting the amount of [^3H]TCDD bound to unprogrammed lysate (nonspecific binding) from the total amount of [^3H]TCDD binding to lysate containing in vitro expressed AhR. The amount of [^3H]TCDD specific binding remaining in the presence of the indicated competitor chemical was expressed as a percent of the total [^3H]TCDD specific binding. The relative binding affinity (IC50) of each chemical was determined from concentration-dependent competitive inhibition curves obtained using [^3H]TCDD and increasing concentrations of each test chemical and the mean IC50 value was determined using three-parameter non-linear regression.

The target of the next experiment is T3, L309A mutant AhR (Mus musculus, UniProt P30561, L309A).
T3 construct: made in house; host or cells: in vitro transcription/translation (rabbit reticulocyte lysate)
Kind of experiment: AhR DNA binding (gel retardation) assay, L309A mutant AhR. It is filed as biochemical. Particulars: L309A substitution; relative to wt mAhR activated by TCDD; single maximal ligand concentration. The protocol:
as §1

The target of a further experiment is T4, L302A mutant AhR (Mus musculus, UniProt P30561, L302A).
T4 construct: made in house; host or cells: in vitro transcription/translation (rabbit reticulocyte lysate)
T4 sequence (P30561 10-848 L302A): T2 sequence (P30561 10-848) with L293A
Kind of experiment: AhR DNA binding (gel retardation) assay, L302A mutant AhR. It is filed as biochemical. Particulars: L302A mutation; single maximal ligand concentration; in words. The procedure: as §1

The mark [3] stands for this setting: Table S1, mean of nine independent reactions, read-out: AhR DNAB EC50.
Where [4] appears, read: gel retardation, values in text, read-out: relative potency to stimulate AhR DNA binding in vitro (EC50).
Setting [5] is: Table S1, wild-type mAhR, mean of nine independent reactions, read-out: AhR LB IC50.
[6] abbreviates: competition with [3H]TCDD, wild-type mAhR, values in text, read-out: relative AhR ligand binding affinity (IC50).
The mark [7] stands for this setting: Table S1, read-out: AhR DNAB -LogEC50 (converted).

Molecules are shown by their SMILES. Numbering of substitutions follows the chain as printed. Where two headings read alike, the source gives them in different places.

T3 sequence (P30561 10-848 L309A): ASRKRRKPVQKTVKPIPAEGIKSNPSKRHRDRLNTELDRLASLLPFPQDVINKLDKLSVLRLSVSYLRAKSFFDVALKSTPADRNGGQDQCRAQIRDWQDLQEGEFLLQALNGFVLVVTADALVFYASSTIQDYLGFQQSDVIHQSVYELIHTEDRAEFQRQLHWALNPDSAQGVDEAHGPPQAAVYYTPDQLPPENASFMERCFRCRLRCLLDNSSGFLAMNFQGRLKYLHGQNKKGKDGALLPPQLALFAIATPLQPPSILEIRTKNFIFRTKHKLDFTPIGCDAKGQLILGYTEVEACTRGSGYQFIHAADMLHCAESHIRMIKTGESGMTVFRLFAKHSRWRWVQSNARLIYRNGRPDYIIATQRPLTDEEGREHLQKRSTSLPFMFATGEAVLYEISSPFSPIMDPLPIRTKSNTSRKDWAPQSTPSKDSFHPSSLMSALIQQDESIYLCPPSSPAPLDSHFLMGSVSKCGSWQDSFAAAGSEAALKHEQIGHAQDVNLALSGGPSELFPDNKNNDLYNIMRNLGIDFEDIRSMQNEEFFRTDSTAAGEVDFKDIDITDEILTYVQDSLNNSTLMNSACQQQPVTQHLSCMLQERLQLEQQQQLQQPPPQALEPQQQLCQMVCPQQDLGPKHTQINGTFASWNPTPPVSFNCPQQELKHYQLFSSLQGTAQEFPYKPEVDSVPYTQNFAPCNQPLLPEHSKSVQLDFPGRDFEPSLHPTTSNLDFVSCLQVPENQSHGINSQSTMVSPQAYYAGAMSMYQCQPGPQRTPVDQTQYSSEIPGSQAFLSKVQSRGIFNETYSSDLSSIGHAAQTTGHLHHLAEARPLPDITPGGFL
T3 sequence (P53762 whole entry partner): as the sequence (P53762 whole entry partner, one chain of several) above

For the molecule `Clc1ccc(-c2cc(Cl)c(Cl)c(Cl)c2)cc1Cl` [PCB126, 3,3′4,4′5-pentachlorobiphenyl], the figures for the EC50 on mAhR [1] (setting [3]) and at mAhR [1] (setting [4]) were 6.51 nM and 6.5 nM, respectively. For the same molecule, the IC50 on mAhR [2] (setting [5]) came out at 5.89 nM; on mAhR [2] (setting [6]), 5.9 nM.
With `O=c1cc(-c2ccccc2)oc2ccc3ccccc3c12` [BNF], the EC50 at mAhR [1] (setting [4]) turned out to be 138 nM. Further, the IC50 turned out to be 7.24 nM at mAhR [2] (setting [5]) and 7.2 nM on mAhR [2] (setting [6]).
Consider `Clc1cc2oc3cc(Cl)c(Cl)cc3c2cc1Cl` [TCDF, 2,3,7,8-tetrachlorodibenzofuran], for which the EC50 at mAhR [1] (setting [3]) was 4.55 nM; at mAhR [1] (setting [4]), 4.5 nM. On L309A mutant AhR, the “ligand-induced AhR DNA binding” value is recorded as “little to no”. Moreover, the IC50 is 20.1 nM on mAhR [2] (setting [5]) and 20 nM on mAhR [2] (Table S1, wild-type mAhR, read-out: AhR LB -LogIC50 (converted)). The “ligand-stimulated AhR DNA binding” value on L302A mutant AhR is given as “eliminated or greatly reduced”.
`Clc1cc2c(cc1Cl)Oc1cc(Cl)c(Cl)cc1O2` [TCDD, 2,3,7,8-tetrachlorodibenzo-p-dioxin]: the EC50 at mAhR [1] (AhR DNAB EC50, Table S1, mean of nine independent reactions) was 7.53 nM; on mAhR [1] (relative potency to stimulate AhR DNA binding in vitro (EC50), gel retardation, values in text), 7.5 nM. In addition, on L309A mutant AhR, the “ligand-induced AhR DNA binding” value is given as “less than 25%”. The IC50 against mAhR [2] and at mAhR [2] (setting [6]) was 1 nM throughout. The “ligand-stimulated AhR DNA binding” value on L302A mutant AhR is on record as “eliminated or greatly reduced”.
For `c1ccc2c(c1)cc1ccc3cccc4ccc2c1c34` [BaP, Benzo(a)pyrene], the figures for the EC50 at mAhR [1] (setting [3]) and at mAhR [1] (setting [4]) were 38.9 nM and 39 nM, respectively. On L309A mutant AhR, the “ligand-induced AhR DNA binding” value is “little to no”. Also, the IC50 at mAhR [2] (setting [6]) turned out to be 617 nM. Moreover, the “ligand-stimulated AhR DNA binding” value at L302A mutant AhR is listed as “eliminated or greatly reduced”.
Take `Cc1ccc2cc3c(ccc4ccccc43)c3c2c1CC3` [3MC, 3-methylcholanthrene]: the EC50 on mAhR [1] (setting [7]) was 6.03 nM. For the same molecule, the IC50 came to 1.58 nM on mAhR [2] (setting [5]) and 1.6 nM at mAhR [2] (setting [6]).
Consider `O=Cc1c2[nH]c3ccccc3c2cc2[nH]c3ccccc3c12` [FICZ, 6-formylindolo[3,2-b]carbazole], for which, on mAhR [1] (setting [4]), the EC50 was 4.25 nM. The IC50 came out at 1.02 nM at mAhR [2] (setting [5]) and 1 nM on mAhR [2] (setting [6]).
`c1ccc2c(c1)ccc1cc3c(ccc4ccccc43)cc12` [DBA, dibenz(a,h)anthracene]: the EC50 at mAhR [1] (setting [3]) is 4.02 nM; on mAhR [1] (setting [7]) it was 3.98 nM. In addition, the IC50 at mAhR [2] (setting [6]) came out at 7.6 nM.
